1 compound from publication PMC9202104 (BMC Biology, 2022) can be followed below.

Assay [1] concerns ZIKV human strain PAN2015. The assay is described as follows: Plaque assay, inhibition of ZIKV infection (strain PAN2015). Format: cell-based. To be noted: Zika virus, Vero C1008, Vero E6 cells. On the procedure:
(§1) After removal of the unbound compounds by centrifugation (after addition of 3% PEG-6000), ZIKV was incubated with Vero E6 cells in 24-well plates at 37°C for 1 h. The cells were then washed with PBS, overlaid with DMEM containing 1% carboxymethyl cellulose and 2% FBS, and cultured at 37°C for 4–5 days, followed by being stained with 0.5% crystal violet. […] Plaques in each well were calculated, and IC50 of compounds for each compound was calculated using the CalcuSyn computer program.

In assay [2] the test system is ZIKV human strain R103451. Put plainly: Plaque assay, inhibition of ZIKV infection (strain R103451). The format is cell-based. To be noted: Zika virus, Vero C1008; plaque assay, Vero E6 cells, human strain; read-out: IC50 R103451. The protocol: as §1
Another assay has as its system DENV-4-PR-06-65-740. The assay is described as follows: Plaque assay, inhibition of DENV-4 infection in LLC-MK2 cells. Conditions: Dengue virus, DENV4. The format is cell-based.
In a further assay the target is T1, ZIKV EDIII protein (Zika virus, UniProt A0A024B7W1).
T1 construct: EDIII (residues 298-409 in E protein containing a C-terminal human Fc tag); human Fc (C)
Put plainly: ELISA binding to ZIKV EDIII protein. The protocol:
(§2) Briefly, ELISA plates were coated with each protein (1 μg/ml) at 4°C overnight and were then incubated with blocking buffer containing 2% fat-free milk in PBST (0.05% Tween-20) at 37°C for 2 h. The above compounds, or DMSO control, at serial dilutions were added to the plates and incubated at 37°C for 2 h. After three washes using PBST, the plates were incubated at 37°C for 2 h with ZIKV EDIII-specific human mAb ZKA64-LALA (0.5 μg/ml) (for binding to ZIKV full-length E or EDIII protein), or ZIKV NS2B-NS3-specific mouse sera (for binding to NS2B-NS3 protein). After further washes, the plates were incubated with horseradish peroxidase (HRP)-conjugated anti-human IgG-Fab (1:3,000, Abcam, Cambridge, MS, USA) or anti-mouse IgG (1:3,000, Sigma) antibody at 37°C for 1 h. The plates were incubated with substrate TMB (3,3′,5,5′-tetramethylbenzidine) for 1 min, and the reaction was stopped by addition of 1 N H2SO4. Absorbance at 450 nm (A450 values) was measured by an ELISA microplate reader. Percent binding (% binding) to the E, EDIII, or NS2B-NS3 protein was calculated in the presence or absence of serially diluted compounds using the formula ((1-(E/EDIII/NS2B-NS3-compound)/(E/EDIII/NS2B-NS3))×100), based on which EC50 was calculated using the CalcuSyn program.
In general terms: ELISA stands for enzyme-linked immunosorbent assay.

In a further assay the target is T2, ZIKV NS2B-NS3 protease (Zika virus, UniProt Q32ZE1).
T2 construct: fused with the genes encoding NS3 protein (residues 1-185) through a linker (Gly4-Thr-Gly4); His6 (C); made in house; host or cells: E. coli
Put plainly: Fluorescence-based NS2B-NS3 protease inhibition assay. Format: biochemical. The protocol: Substrate (benzoyl-norleucinelysine-lysine-arginine 7-amino-4-methylcoumarine (Bz-Nle-Lys-Lys-Arg-AMC, 4 μM)) (Bachem, Torrance, CA, USA) was added and incubated for 10 min. Fluorescence intensity was then measured at 460 nm (with excitation at 355 nm) using a microplate reader (FLUOstar Omega, BMG Labtech, USA). A total of 10 mM Tris-HCl, 20% glycerol, 1 mM CHAPS, and 5% DMSO (pH 8.5) were used as reaction and dilution buffers. Percent inhibition (% inhibition) of protease activity was measured in the presence or absence of serially diluted compounds based on the formula ((1-(NS2B-NS3-substrate-compound)/(NS2B-NS3-substrate))×100).

Assay [3] deals with T3, ZIKV full-length envelope (E) protein (Zika virus, UniProt Q32ZE1).
T3 construct: ZIKV full-length E (Aviva Systems Biology, San Diego, CA, USA); purchased Aviva Systems Biology
The assay is described as follows: ELISA binding to ZIKV full-length E protein. The protocol:
as §2

Assay [4] concerns ZIKV human strain PLCal_ZV. The assay is described as follows: Plaque assay, inhibition of ZIKV infection (strain PLCal_ZV). Format: cell-based. Conditions: Zika virus, Vero C1008; plaque assay, Vero E6 cells, human strain; read-out: IC50 PLCal_ZV. On the procedure: as §1
Assay [5] concerns the target T4, ZIKV NS2B-NS3 protein (Zika virus, UniProt Q32ZE1).
T4 construct: fused with the genes encoding NS3 protein (residues 1-185) through a linker (Gly4-Thr-Gly4); His6 (C); made in house; host or cells: E. coli
The assay is described as follows: SPR binding to ZIKV NS2B-NS3. On the procedure: (GE Healthcare, Port Washington, NY, USA). Briefly, ZIKV EDIII protein or NS2B-NS3 protein was immobilized on a sensor chip (CM5) using the Amine Coupling Kit (GE Healthcare). Serially diluted ST087010 was added as analytes, and HBS-EP with 10% DMSO (10 mM HEPES, 150 mM NaCl, 3 mM EDTA, 0.05% Tween-20, 10% DMSO, pH 7.4) was used as a running buffer. Biacore BK evaluation software (version 1.1) was applied to analyze the data, and the curve was fitted with a 1:1 binding model.
On the technique in general: In SPR one partner is held on a chip, and binding of the other changes the refractive index at the surface.

Assay [6] has as its target T5, binding of ZIKV EDIII to EDIII-specific neutralizing mAbs (Zika virus, UniProt A0A024B7W1).
T5 construct: EDIII (residues 298-409 in E protein containing a C-terminal human Fc tag); human Fc (C)
The assay is described as follows: ELISA competition assay, EDIII-mAb binding. Conditions: for IC50: mAb 0.5 μg/mL. On the procedure: ELISA was also used to determine the ability of ST087010 to inhibit the binding between ZIKV EDIII and EDIII-specific human mAbs (SMZAb5, ZKA64-LALA, ZV-67, or Z004) or EDI/II-specific human mAb (ZKA78) control. […] The plates were then sequentially incubated with HRP-conjugated anti-human IgG-Fab antibody and TMB substrate, followed by detection of A450 values. Percent inhibition (% inhibition) of compounds was calculated using the formula ((1-(EDIII-mAb-compound)/(EDIII-mAb))×100), and IC50 was obtained using the CalcuSyn computer program.

Assay [7] concerns the target T4, ZIKV NS2B-NS3 protein. Put plainly: ELISA binding to ZIKV NS2B-NS3 protein. The protocol:
as §2

Another assay has as its system DENV-2-V594. The assay is described as follows: Plaque assay, inhibition of DENV-2 infection in LLC-MK2 cells. The format is cell-based. Conditions: Dengue virus, DENV2.
For assay [8], the system named is 8 human ZIKV strains (PAN2016, R116265, PAN2015, FLR, R103451, PRVABC59, PLCal_ZV, IbH 30656). The assay is described as follows: microbe, parasite or virus in culture. Format: cell-based. Conditions: Zika virus, read-out: Average IC50 (human strains). On the procedure: as §1
In assay [9] the test system is ZIKV mosquito strain MEX 2-81. The assay is described as follows: Plaque assay, inhibition of ZIKV infection (strain MEX 2-81). Format: cell-based. To be noted: Zika virus, Vero C1008; plaque assay, Vero E6 cells, mosquito strain; read-out: IC50 MEX 2-81. On the procedure:
as §1

Usually IC50 stands for the concentration needed to halve the response being measured. A word on the EC50: it is the concentration that produces a half-maximal response. Higher therefore signals lower potency in that assay. The Kd is the free concentration of one partner at which half of the binding sites on the other are occupied at equilibrium, for simple one-to-one binding.

T5 sequence (A0A024B7W1 588-699): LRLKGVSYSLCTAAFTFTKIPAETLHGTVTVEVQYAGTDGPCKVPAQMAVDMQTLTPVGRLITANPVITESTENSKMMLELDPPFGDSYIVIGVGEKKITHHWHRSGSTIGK
T4 sequence (Q32ZE1 1499-1683, added parts left off, change not shown): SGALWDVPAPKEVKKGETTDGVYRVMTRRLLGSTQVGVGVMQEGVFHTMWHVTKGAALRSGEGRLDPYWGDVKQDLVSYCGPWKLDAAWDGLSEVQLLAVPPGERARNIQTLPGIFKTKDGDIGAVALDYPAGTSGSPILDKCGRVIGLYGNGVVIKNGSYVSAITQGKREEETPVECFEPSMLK
T2 sequence (Q32ZE1 1499-1683, added parts left off, change not shown): as above
T3 sequence (Q32ZE1 291-790): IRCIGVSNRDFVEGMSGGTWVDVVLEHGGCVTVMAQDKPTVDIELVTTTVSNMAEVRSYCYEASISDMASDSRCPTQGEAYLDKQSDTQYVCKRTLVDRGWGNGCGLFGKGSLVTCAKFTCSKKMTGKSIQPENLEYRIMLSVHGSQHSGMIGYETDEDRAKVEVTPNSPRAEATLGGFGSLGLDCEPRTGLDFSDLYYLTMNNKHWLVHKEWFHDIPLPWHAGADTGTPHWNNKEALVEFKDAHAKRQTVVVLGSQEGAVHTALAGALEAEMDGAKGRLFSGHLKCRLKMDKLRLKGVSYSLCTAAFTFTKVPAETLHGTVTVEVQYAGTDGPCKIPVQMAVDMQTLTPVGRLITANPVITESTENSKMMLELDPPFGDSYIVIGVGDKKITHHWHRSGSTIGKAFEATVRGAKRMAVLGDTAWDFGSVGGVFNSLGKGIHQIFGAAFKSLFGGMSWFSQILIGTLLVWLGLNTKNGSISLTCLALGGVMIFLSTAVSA
T1 sequence (A0A024B7W1 588-699): as the sequence (A0A024B7W1 588-699) above

Regarding `Cc1cc2c(C(C)C)c(O)c(O)c(/C=N/n3c(=O)[nH][nH]c3=O)c2c(O)c1-c1c(C)cc2c(C(C)C)c(O)c(O)c(/C=N/n3c(=O)[nH][nH]c3=O)c2c1O` [ST087010], the IC50 in assay [1] is 3.5 µM; in assay [2], 3.6 µM; in the assay with DENV-4-PR-06-65-740, 2.98 ± 0.18 µM; at ZIKV NS2B-NS3 protease, 4.84 µM; in [4] it was 2.2 µM; in [6] (IC50 blocking EDIII binding to mAb SMZAb5, ELISA competition) it was 5.72 µM. The IC50 was determined as 44.5 µM in assay [6] (IC50 blocking EDIII binding to mAb Z004, ELISA competition); 4.17 µM in [6] (IC50 blocking EDIII binding to mAb ZKA64-LALA, ELISA competition); 6.7 µM in assay [6] (IC50 blocking EDIII binding to mAb ZV-67, ELISA competition); 3.19 ± 0.01 µM with DENV-2-V594; 2.9 µM in assay [8]; 2.9 µM in assay [9]. The 50% effective concentration (EC50) on ZIKV EDIII protein turned out to be 6.13 µM; in assay [3] it was 6.47 µM; at ZIKV NS2B-NS3 protein [7], 21.9 µM. Also, the Kd at ZIKV NS2B-NS3 protein [5] is 19.9 µM. The “Inhibition with EDI/II-specific mAb control ZKA78” value in [6] (ELISA competition, ZKA78 did not bind to EDIII) was “no inhibition”.
